Here are results for three compounds from patent US10251852B2, “Composition and methods for treatment of lung disorders characterized by cholesterol dysregulation” (priority 2016, dated 2019).

For data set [1], the system named is BMD macrophages from PAP mice (Csf2−/−). Kind of data set: In vitro surfactant challenge assay after PPARγ/LXR stimulation (esterified cholesterol accumulation). The data set is classed as cell-based, mouse. How it is done:
(§1) In vitro surfactant challenge assay. BMD macrophages or peritoneal macrophages were seeded at 4×10^5 cells per well of a 12 well tissue culture plate and allowed to adhere with fresh media and cytokines overnight. Cells were then challenged for 24 hrs with pulmonary surfactant isolated from a hereditary PAP patient (PAP-S). After the challenge cells were gently washed with PBS to remove exogenous PAP-S and cellular lipids were then extracted and analyzed by the amplex red cholesterol assay.
In vitro mouse PPARγ & LXR stimulation Studies. BMD macrophages were prepared as previously described in the presence of M-CSF (10 ng/ml). On the 7th day macrophages were stimulated for 24 hrs with M-CSF (10 ng/ml), GM-CSF (10 ng/ml), Pioglitazone (10 μm) or T0901317 (1 μm from Tocris). Macrophages were then used for an in vitro surfactant challenge assay or gene expression analysis by qRT-PCR as described above.

Data set [2] deals with alveolar macrophages from PAP patients. Kind of data set: Ex vivo human PPARγ & LXR stimulation, mRNA by qRT-PCR. Format: cell-based. How it is done:
Bronchoalveolar lavage and alveolar macrophage collection in human participants. This study was conducted with the approval of the Cincinnati Children's Hospital Medical Center institutional review board and all participants or their legal guardians gave written informed consent. Human BAL fluid and alveolar macrophages were obtained from BAL using flexible bronchoscopy or from discarded material of PAP patients undergoing therapeutic whole lung lavage. After the fluid was centrifuged at 283 g for 10 minutes, the cellular pellet was re-suspended in the culture medium. Human alveolar macrophages were isolated by adherence to tissue culture plastic. Extracellular debris was removed by gentle washing with PBS.
(§2) RNA isolation and gene expression analysis. Total RNA was isolated using Trizol (Life Technologies) and was converted to cDNA using the Invitrogen Superscript III first strand synthesis kit (Life Technologies) according to the manufacturer's protocol. Standard quantitative RT-PCR (qRT-PCR) was performed as previously described 10 on an Applied Biosystems 7300 Real-Time PCR System (Life Technologies) to measure transcript abundance using TaqMan® oligonucleotide primer sets (all from Life Technologies). Expression of target genes was normalized to the expression of 18s RNA.
Ex vivo human PPARγ & LXR stimulation studies. After purifying alveolar macrophages, fresh media was added to the adherent alveolar macrophages containing human M-CSF (R&D) (25ng/ml) only or M-CSF plus Pioglitazone (Sigma) (10 μM) or T0901317 (Tocris) (1 μM) for 24 hrs. qRT-PCR was performed as described above.

Data set [3] deals with BMD macrophages from PAP mice (Csf2−/−). Kind of data set: In vitro mouse PPARγ & LXR stimulation, gene expression by qRT-PCR. Format: cell-based. The note with it: T0901317 1 μm. How it is done:
Tissue macrophage differentiation and culture. All cells were maintained in the culture medium of Dulbecco's modified eagle's medium (DMEM) (Life Technologies) plus 10% FBS, 50 U ml-1 penicillin, and 50 μg ml-1 streptomycin. Bone marrow cells were obtained from 6-8-week-old mice by flushing the tibias and femurs with the culture media described above.
Mononuclear cells were isolated by centrifugation over a Ficoll-Paque (GE Healthcare Life Sciences) gradient at room temperature for 30 minutes. The buffy coat was washed in PBS and the cellular pellet re-suspended in the culture medium with M-CSF (R&D Systems) (5 ng/ml) plus or minus GM-CSF (R&D Systems) as dictated per experimental requirements. Cells were cultured in a 10 cm dish overnight at 37° C. and the next day non-adherent cells were recovered and transferred to a new dish and cultured under the same conditions for an additional 24 hrs. At this stage non-adherent cells were discarded and adherent cells cultured for an additional five days to allow differentiation of bone marrow derived (BMD) macrophages. Peritoneal macrophages were isolated from the peritoneal without chemical solicitation by washing with 8 ml of PBS plus 0.5 mM EDTA. WT peritoneal macrophages were cultured in vitro in culture medium with M-CSF (5 ng/ml) and GM-CSF […], and Csf2^−/− peritoneal macrophages were cultured in culture medium with M-CSF alone. […]

The subject of data set [4] is Csf2rb−/− mice. Kind of data set: In vivo LXR stimulation study (oral T0901317 in PAP mice). Further details: species or system mouse. The note with it: oral gavage 10 mg/kg/day, 7 days. The protocol:
Bronchoalveolar lavage and alveolar macrophage collection in mice.
RNA isolation and gene expression analysis.
In vivo LXR Stimulation Studies. Mice were administered T0901317 by oral gavage once daily for 7 days at a dose of 10 mg/kg/BW/Day using propylene glycol and tween 80 as a vehicle. On the 7th day alveolar macrophages were collected by bronchoalveolar lavage. Following brief adherence to tissue culture plastic to remove BAL debris, alveolar macrophages were then used for RNA isolation and gene expression analysis by qRT-PCR as described above

For data set [5], the system named is patients with insulin resistance. The conditions noted are these: literature ref. 53; cited from earlier work.
Data set [6] concerns Csf2rb−/− mice. Kind of data set: In vivo PPARγ stimulation study (oral pioglitazone in PAP mice).
Text: Bronchoalveolar lavage and alveolar macrophage collection in mice. GM-CSF (CSF2) knockout (Csf2^−/−) mice5 and Csf2rb gene-deficient (Csf2rb^−/−)14 were reported previously (referred to mouse PAP). C57B1/6 mice (referred to as wild type or WT mice) were purchased from Charles River. All mice were bred, housed, and studied in the Cincinnati Children's Research Foundation Vivarium using protocols approved by the Institutional Animal Care and Use Committee. Epithelial lining fluid and non-adherent cells were collected from indicated mice by bronchoalveolar lavage (BAL) using five lml aliquots of PBS plus 0.5 mM EDTA4. The 1 ml aliquots were pooled and the recovered volumes recorded. The supernatant was removed and the cellular pellets were re-suspended in the culture media for isolation of alveolar macrophages by adherence to tissue culture plastic.
Cholesterol levels. Total and free cholesterol levels were measured by the amplex red cholesterol assay (Life Technologies) per the manufacturer's protocol. Esterified cholesterol was then calculated by subtracting free cholesterol from the total value.
Turbidity. The turbidity of the fluid was measured as previously described^4,55 Briefly, 250 uls of the BAL were diluted into 750 uls of PBS and the optical density measured at a wavelength of 600 nm and multiplied by the dilution factor.
as §2
In vivo PPARγ stimulation studies. Pioglitazone was incorporated into standard rodent chow at a dose expected to deliver 20 mg/kg BW/Day. BAL turbidity and alveolar macrophage gene expressions were measured as described above. GM-CSF levels and total cholesterol levels in the BAL were measured in the supernatant of fluid after centrifuge at 283 g for 10 minutes at 4° C. by enzyme-linked immunosorbent assay (ELISA) (R&D systems) and Amplex Red Cholesterol assay respectively as described above.

A further data set concerns Csf2−/− BMD macrophages. Kind of data set: GM-CSF plasticity studies (withdrawal, multi-day stimulation, dose response) with PAP-S challenge. Format: cell-based, mouse. The conditions noted are these: for reduction in exposure-related cholesterol ester accumulation: addition of GM-CSF (10 ng/ml) to macrophages cultured without it; for increase in exposure-related cholesterol ester accumulation: withdrawal of GM-CSF. The protocol: as §1
GM-CSF withdrawal. Csf2^−/− BMD macrophages were differentiated and maintained in media containing M-CSF and GM-CSF. After 7 days of differentiation cells were split into 12well tissue culture plates and allowed to adhere overnight in GM-CSF containing media. The following day the media was changed to M-CSF only and cells were challenged with PAP-S for 24hrs immediately or 24, 48, and 72 hours after GM-CSF withdrawal. Cellular lipids were extracted, normalized to total protein, and analyzed. Csf2^−/− BMD macrophages were used to ensure elimination of any potential autologous GM-CSF expression-related stimulation.
Multi-Day GM-CSF stimulation. Csf2^−/− BMD macrophages were generated in media containing M-CSF. On the 7th day cells were stimulated for 0, 24, 48, or 72 hrs with 10 ng/ml of GM-CSF before 24 hr surfactant challenge with PAP-S. Cellular lipids were extracted, normalized to total protein, and analyzed.
GM-CSF dose response. Csf2^−/− BMD macrophages were generated in media containing M-CSF. On the 7th day cells were stimulated by a dose response of GM-CSF (0, 0.1,1,10, and 100 ng/ml) for 24 hrs before surfactant challenge with PAP-S. Cellular lipids were extracted, normalized to total protein, and analyzed.

Where [7] appears, read: pioglitazone 10 μM, 24 hrs, compared to untreated controls (FIG. 5A-5B).
[8] abbreviates: oral in food, 20 mg/kg/day, six weeks, vs untreated age-matched controls (FIG. 5F-5G).

With `O=S(=O)(c1ccccc1)N(CC(F)(F)F)c1ccc(C(O)(C(F)(F)F)C(F)(F)F)cc1` [T0901317, N-(2,2,2-trifluoroethyl)-N-[4-[2,2,2-trifluoro-1-hydroxy-1-(trifluoromethyl)ethyl]phenyl]-benzenesulfonamide], the “cholesterol ester accumulation following exposure to PAP-surfactant” value in data set [1] (T0901317 1 μm 24 hrs, then PAP-S 24 hrs (FIG. 8E)) is listed as “reduced”. In addition, the “ABCG1 mRNA” value in data set [2] (T0901317 1 μM, 24 hrs (FIG. 8A)) is “increase”. Moreover, in data set [2] (T0901317 1 μM, 24 hrs (FIG. 8B)), the “ABCA1 mRNA” value was “increase”. Besides, the “Abcg1 mRNA level” value in data set [3] (24 hrs (FIG. 8C)) is given as “increased”. For the same compound, the “Abca1 mRNA level” value in data set [3] (24 hrs (FIG. 8D)) is “increased”. Also, the “Abca1 mRNA in alveolar macrophages” value in the data set on Csf2rb−/− mice [4] (vs untreated age-matched controls (FIG. 8F)) is recorded as “significantly increased”. For the same compound, the “Abcg1 mRNA in alveolar macrophages” value with Csf2rb−/− mice [4] (vs untreated age-matched controls (FIG. 8G)) is on record as “significantly increased”.
Regarding `CCc1ccc(CCOc2ccc(CC3SC(=O)NC3=O)cc2)nc1` (stereo not shown) [pioglitazone, Pioglitazone], in data set [1] (pioglitazone 10 μm 24 hrs, then PAP-S 24 hrs (FIG. 5E)), the “cholesterol ester accumulation following exposure to PAP-surfactant” value is “reduced”. The “risk of stroke or myocardial infarction” value in data set [5] was “reduce the risk”. In data set [2] (setting [7]), the “ABCA1 mRNA” value is listed as “did not alter” and the “ABCG1 mRNA” value is on record as “markedly increased”. In the data set on Csf2rb−/− mice [6] (setting [8]), the “Abca1 mRNA in alveolar macrophages” value is listed as “significantly increased” and the “Abcg1 mRNA in alveolar macrophages” value is given as “significantly increased”. For the same compound, the BAL turbidity result with Csf2rb−/− mice [6] (oral in food, 20 mg/kg/day, six weeks, vs untreated age-matched controls (FIG. 5H)) is recorded as “significantly reduced”. For the same compound, the BAL cholesterol level entry in the data set on Csf2rb−/− mice [6] (oral in food, 20 mg/kg/day, six weeks, vs untreated age-matched controls (FIG. 5I)) is “significantly reduced”. The adverse effects entry in the data set on Csf2rb−/− mice [6] (oral pioglitazone in Csf2rb−/− mice (not shown)) is listed as “no apparent adverse effects”. Further, the “severity of PAP lung disease” value in the data set on Csf2rb−/− mice [6] (pioglitazone therapy of GM-CSF deficient mice (summary statement)) is recorded as “reduced the severity”.
In the case of “GM-CSF: granulocyte/macrophage-colony stimulating factor (R&D Systems)”, the “cholesterol clearance capacity of macrophages” value in the data set with Csf2−/− BMD macrophages (GM-CSF 0, 0.1, 1, 10, 100 ng/ml for 24 hrs before PAP-S challenge (FIG. 3N)) was “increased the cholesterol clearance capacity of macrophages in dose-dependent fashion”. In addition, the “reduction in exposure-related cholesterol ester accumulation” value in the data set on Csf2−/− BMD macrophages (by 24 hours (FIG. 3M)) is recorded as 27%; in the data set on Csf2−/− BMD macrophages (by 72 hours (FIG. 3M)), 49%. Besides, the “increase in exposure-related cholesterol ester accumulation” value with Csf2−/− BMD macrophages (by 24 hours (FIG. 3L)) came to 86%; in the data set on Csf2−/− BMD macrophages (by 72 hours (FIG. 3L)) it was 309%.
